Laboratory results as given in PubChem BioAssay AID248 (DTP/NCI, 2004).
“And” between values parts separate entries of the source, which are not always exact repeats. Identical values can stand only once. Inconclusive results and toxic doses are left out. Cut-off read from the data, not from the text of the source: active = T/C of 150% or more; inactive = T/C below 125%. Peptide text beside a SMILES is read from it. * marks the point of attachment. Cbz = O=C(OCc1ccccc1)*; Bn = c1ccc(C*)cc1

Test system: L1210 leukemia ip in BDF1 mice, survival T/C
Assay: NCI In Vivo Anticancer Drug Screen. Data for tumor model L1210 Leukemia (intraperitoneal) in B6D2F1 (BDF1) mice
Settings: endpoint: mean survival time, higher = longer survival
How it was run: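 In this screen, tumor-bearing mice given compound are compared to those given vehicle, and their survival values are reported as a treated-to-control quotient.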

[1] = dose: 100.0 mg/kg/injection, schedule: Q04DX003 (ip), vehicle: saline with Tween-80
[2] = dose: 200.0 mg/kg/injection, schedule: Q04DX003 (ip), vehicle: saline with Tween-80
[3] = dose: 400.0 mg/kg/injection, schedule: Q04DX003 (ip), vehicle: saline with Tween-80
[4] = dose: 100.0 mg/kg/injection, schedule: Q01DX009 (ip), vehicle: Klucel (hydroxypropylcellulose) (HPC)
[5] = dose: 200.0 mg/kg/injection, schedule: Q01DX009 (ip), vehicle: Klucel (hydroxypropylcellulose) (HPC)
[6] = dose: 100.0 mg/kg/injection, schedule: Q04DX002 (ip), vehicle: saline
[7] = dose: 200.0 mg/kg/injection, schedule: Q04DX002 (ip), vehicle: saline
[8] = dose: 400.0 mg/kg/injection, schedule: Q04DX002 (ip), vehicle: saline
[9] = dose: 100.0 mg/kg/injection, schedule: Q04DX003 (ip), vehicle: Klucel (hydroxypropylcellulose) (HPC)
[10] = dose: 200.0 mg/kg/injection, schedule: Q04DX003 (ip), vehicle: Klucel (hydroxypropylcellulose) (HPC)
[11] = dose: 400.0 mg/kg/injection, schedule: Q04DX003 (ip), vehicle: Klucel (hydroxypropylcellulose) (HPC)
[12] = dose: 400.0 mg/kg/injection, schedule: Q01DX001 (ip), vehicle: carboxymethylcellulose (CMC)

Measured: T/C

O=C(NCCc1ccc([N+](=O)[O-])cc1)c1ccc(S(=O)(=O)F)cc1
inactive: dose: 100.0 mg/kg/injection, schedule: Q01DX001 (ip), vehicle: Klucel (hydroxypropylcellulose) (HPC) 103 % of control | dose: 200.0 mg/kg/injection, schedule: Q01DX001 (ip), vehicle: Klucel (hydroxypropylcellulose) (HPC) 94 % of control | dose: 400.0 mg/kg/injection, schedule: Q01DX001 (ip), vehicle: Klucel (hydroxypropylcellulose) (HPC) 103 % of control

CC(=O)Oc1ccc(Cl)cc1
inactive: dose: 100.0 mg/kg/injection, schedule: Q01DX009 (ip), vehicle: saline with Tween-80 97 % of control | [1] 108 % of control | dose: 200.0 mg/kg/injection, schedule: Q01DX009 (ip), vehicle: saline with Tween-80 103 % of control | [2] 97 % of control | [3] 105 % of control

Cc1ccc(S(=O)(=O)Nc2cccc3cc(Cl)ccc23)cc1
inactive: dose: 100.0 mg/kg/injection, schedule: Q04DX003 (ip), vehicle: acetone 94 % of control | dose: 200.0 mg/kg/injection, schedule: Q04DX003 (ip), vehicle: acetone 105 % of control | dose: 400.0 mg/kg/injection, schedule: Q04DX003 (ip), vehicle: acetone 91 % of control

CCCCCCCCC(SC#N)C(CCCCCCCC(=O)O)SC#N (centres undefined)
inactive: dose: 100.0 mg/kg/injection, schedule: Q04DX002 (ip), vehicle: Klucel (hydroxypropylcellulose) (HPC) 100 % of control | dose: 200.0 mg/kg/injection, schedule: Q04DX002 (ip), vehicle: Klucel (hydroxypropylcellulose) (HPC) 95 % of control | dose: 400.0 mg/kg/injection, schedule: Q04DX002 (ip), vehicle: Klucel (hydroxypropylcellulose) (HPC) 106 % of control

IC1=CC2CCC(C1)C2 (centres undefined)
inactive: dose: 100.0 mg/kg/injection, schedule: Q01DX009 (ip), vehicle: acetone 109 % of control | dose: 200.0 mg/kg/injection, schedule: Q01DX009 (ip), vehicle: acetone 97 % of control

Nc1cccc2c1C(O)c1ccccc1-2 (centres undefined)
inactive: [1] 101 % of control | [2] 97 % of control | [3] 101 % of control

CC(C)C(NC(=O)C(CSCc1ccccc1)NC(=O)OCc1ccccc1)C(N)=O (centres undefined) (Cbz-Cys(Bn)-Val-NH2; configuration not given here)
inactive: [4] 87 % of control | [5] 89 % of control

C/C(N=Nc1ccccc1)=N\Nc1cccc(C(F)(F)F)c1
inactive: dose: 50.0 mg/kg/injection, schedule: Q01DX009 (ip), vehicle: Klucel (hydroxypropylcellulose) (HPC) 107 % of control | [4] 102 % of control | [5] 110 % of control | dose: 400.0 mg/kg/injection, schedule: Q01DX009 (ip), vehicle: Klucel (hydroxypropylcellulose) (HPC) 102 % of control

[Co].[NH-]C(=O)c1ccccn1.[NH2-].[NH2-].[NH2-].[NH2-].[NH2-]
inactive: [6] 118 % of control | [7] 101 % of control | [8] 108 % of control

Fc1ccc(C(=S)Nc2ccccc2)cc1
inactive: dose: 100.0 mg/kg/injection, schedule: Q01DX001 (ip), vehicle: acetone 104 % of control | dose: 200.0 mg/kg/injection, schedule: Q01DX001 (ip), vehicle: acetone 98 % of control | dose: 400.0 mg/kg/injection, schedule: Q01DX001 (ip), vehicle: acetone 92 % of control

CON(C)S(=O)c1ccc([N+](=O)[O-])cc1 (centres undefined)
inactive: [9] 100 % of control | [10] 97 % of control | [11] 94 % of control

COC(=O)CSC(=S)N(C)C
inactive: [1] 91 % of control | [2] 91 % of control | [3] 94 % of control

C/C(=C\C(=O)O)C(=O)O (tested in a mixture with another compound)
inactive: dose: 264.0 mg/kg/injection, schedule: Q01DX001 (ip), vehicle: carboxymethylcellulose (CMC) 113 % of control | [12] 112 % of control | dose: 600.0 mg/kg/injection, schedule: Q01DX001 (ip), vehicle: carboxymethylcellulose (CMC) 112 % of control

Cc1ccc(NC(=O)Nc2cc([N+](=O)[O-])ccc2C)cc1C
inactive: [9] 88 % of control | [10] 88 % of control | [11] 96 % of control

Nc1ncnc(N)c1N
inactive: dose: 100.0 mg/kg/injection, schedule: Q01DX001 (ip), vehicle: saline with Tween-80 104 % of control | dose: 200.0 mg/kg/injection, schedule: Q01DX001 (ip), vehicle: saline with Tween-80 105 % of control | dose: 400.0 mg/kg/injection, schedule: Q01DX001 (ip), vehicle: saline with Tween-80 98 % of control

COc1cc(C(=O)NNS(=O)(=O)c2ccccc2)cc(OCc2ccccc2)c1OC
inactive: [6] 97 % of control | [7] 97 % of control | [8] 95 % of control

Oc1ccc(Cl)cc1/C=N/Nc1c2ccccc2nc2ccccc12
inactive: dose: 100.0 mg/kg/injection, schedule: Q01DX001 (ip), vehicle: saline 89 % of control | dose: 200.0 mg/kg/injection, schedule: Q01DX001 (ip), vehicle: saline 103 % of control | dose: 400.0 mg/kg/injection, schedule: Q01DX001 (ip), vehicle: saline 105 % of control

CS(=O)(=O)OCC(=O)NCCCNC(=O)COS(C)(=O)=O
inactive: dose: 17.5 mg/kg/injection, schedule: Q01DX013 (ip), vehicle: other 123 % of control | dose: 18.8 mg/kg/injection, schedule: Q01DX015 (ip), vehicle: saline 122 % of control | dose: 35.0 mg/kg/injection, schedule: Q01DX013 (ip), vehicle: other 121 % of control | dose: 256.0 mg/kg/injection, schedule: Q01DX009 (ip), vehicle: saline 118 % of control
active: dose: 54.0 mg/kg/injection, schedule: Q01DX009 (ip), vehicle: saline 166 % of control | dose: 75.0 mg/kg/injection, schedule: Q01DX015 (ip), vehicle: saline 155 % of control | dose: 80.0 mg/kg/injection, schedule: Q01DX009 (ip), vehicle: saline 175 % of control | dose: 120.0 mg/kg/injection, schedule: Q01DX009 (ip), vehicle: saline 202 % of control | dose: 150.0 mg/kg/injection, schedule: Q01DX015 (ip), vehicle: saline 150 % of control | dose: 180.0 mg/kg/injection, schedule: Q01DX009 (ip), vehicle: saline 164 % of control and 195 % of control

CCCCCCCC(=O)N(C(C)C)C(C)C
inactive: dose: 100.0 mg/kg/injection, schedule: Q01DX001 (ip), vehicle: carboxymethylcellulose (CMC) 108 % of control | dose: 100.0 mg/kg/injection, schedule: Q01DX009 (ip), vehicle: carboxymethylcellulose (CMC) 101 % of control and 103 % of control | dose: 100.0 mg/kg/injection, schedule: Q04DX002 (ip), vehicle: carboxymethylcellulose (CMC) 100 % of control | dose: 100.0 mg/kg/injection, schedule: Q04DX003 (ip), vehicle: carboxymethylcellulose (CMC) 100 % of control | dose: 200.0 mg/kg/injection, schedule: Q01DX001 (ip), vehicle: carboxymethylcellulose (CMC) 98 % of control | dose: 200.0 mg/kg/injection, schedule: Q01DX009 (ip), vehicle: carboxymethylcellulose (CMC) 93 % of control and 109 % of control | dose: 200.0 mg/kg/injection, schedule: Q04DX002 (ip), vehicle: carboxymethylcellulose (CMC) 89 % of control | dose: 200.0 mg/kg/injection, schedule: Q04DX003 (ip), vehicle: carboxymethylcellulose (CMC) 102 % of control | [12] 96 % of control | dose: 400.0 mg/kg/injection, schedule: Q01DX009 (ip), vehicle: carboxymethylcellulose (CMC) 103 % of control and 111 % of control | dose: 400.0 mg/kg/injection, schedule: Q04DX002 (ip), vehicle: carboxymethylcellulose (CMC) 96 % of control | dose: 400.0 mg/kg/injection, schedule: Q04DX003 (ip), vehicle: carboxymethylcellulose (CMC) 105 % of control

CC(C)=NOC(C)C(=O)O (centres undefined)
inactive: dose: 50.0 mg/kg/injection, schedule: Q01DX009 (ip), vehicle: saline 94 % of control and 101 % of control | dose: 50.0 mg/kg/injection, schedule: Q04DX003 (ip), vehicle: saline 95 % of control | dose: 75.0 mg/kg/injection, schedule: Q01DX001 (ip), vehicle: saline 101 % of control and 98 % of control | dose: 100.0 mg/kg/injection, schedule: Q01DX009 (ip), vehicle: saline 91 % of control and 97 % of control | dose: 100.0 mg/kg/injection, schedule: Q04DX003 (ip), vehicle: saline 100 % of control and 98 % of control | dose: 150.0 mg/kg/injection, schedule: Q01DX001 (ip), vehicle: saline 103 % of control and 106 % of control | dose: 200.0 mg/kg/injection, schedule: Q01DX009 (ip), vehicle: saline 92 % of control and 103 % of control | dose: 200.0 mg/kg/injection, schedule: Q04DX003 (ip), vehicle: saline 97 % of control and 95 % of control | dose: 300.0 mg/kg/injection, schedule: Q01DX001 (ip), vehicle: saline 114 % of control

N#Cc1cccc[n+]1Cc1ccc([N+](=O)[O-])cc1
inactive: [1] 97 % of control
